Laboratory results taken from PubChem BioAssay (NCI).
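Growth conditions: 96-well plates. Treatment: test compound, 48 hours, 5 concentrations. Analysis: linear interpolation between bracketing concentrations; unreached endpoints set to highest concentration. Abbreviation: GI50, concentration required for 50% inhibition of growth. TGI marks complete inhibition of growth.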 Where a SMILES comes first, the peptide text is derived from it.

Legend:
Experiment in all cases: NCI tumour cell line growth inhibition, 48 h
DU-145 prostate = test system: DU-145 prostate
HCC-2998 colon = test system: HCC-2998 colon
HL-60(TB) leukemia = test system: HL-60(TB) leukemia
KM12 colon = test system: KM12 colon
MALME-3M melanoma = test system: MALME-3M melanoma
NCI/ADR-RES ovarian = test system: NCI/ADR-RES ovarian
OVCAR-3 ovarian = test system: OVCAR-3 ovarian
RXF 393 renal = test system: RXF 393 renal
T-47D breast = test system: T-47D breast
TK-10 renal = test system: TK-10 renal

Compound | TGI (DU-145 prostate) [µM] | TGI (HCC-2998 colon) [µM] | TGI (HL-60(TB) leukemia) [µM] | TGI (KM12 colon) [µM] | TGI (MALME-3M melanoma) [µM] | TGI (NCI/ADR-RES ovarian) [µM] | TGI (OVCAR-3 ovarian) [µM] | TGI (RXF 393 renal) [µM] | TGI (T-47D breast) [µM] | TGI (TK-10 renal) [µM] | GI50 (DU-145 prostate) [nM] | GI50 (HCC-2998 colon) [µM] | GI50 (HL-60(TB) leukemia) [µM] | GI50 (KM12 colon) [µM] | GI50 (MALME-3M melanoma) [nM] | GI50 (NCI/ADR-RES ovarian) [nM] | GI50 (OVCAR-3 ovarian) [nM] | GI50 (RXF 393 renal) [nM] | GI50 (T-47D breast) [µM] | GI50 (TK-10 renal) [nM]
CN(C)c1ccc(-c2ccc(N(C)C)c3n[se]nc23)c2n[se]nc12 | > 100 | > 100 | > 100 | > 100 | > 100 | > 100 | > 100 | > 100 | > 100 | > 100 | – | – | – | – | – | – | – | – | – | –
CCCCCCOc1ccc(C(=O)N(C)O)cc1 | 66 | 99 | 33.2 | > 100 | 57.3 | 57.1 | > 100 | 97.6 | 99.4 | > 100 | – | – | – | – | – | – | – | – | – | –
Cc1nn2c(C(=O)N/N=C/c3ccc([N+](=O)[O-])cc3)c(C)nc2s1 | > 100 | > 100 | > 100 | > 100 | > 100 | > 100 | > 100 | > 100 | > 100 | > 100 | – | – | – | – | – | – | – | – | – | –
Cc1sc(C)c2c1C(=O)CC2N (stereo not given) | 30.3 | 35.1 | 22.9 | > 46.4 | 28.4 | > 100 | 32.8 | 34.8 | > 83 | 33.5 | – | – | – | – | – | – | – | – | – | –
CN(C)CC1CCCCCCCCCC(CN(C)C)C1=O (stereo not given) | 31.1 | > 100 | > 100 | > 39.4 | > 65.4 | 52.1 | > 40.1 | > 42.4 | 53 | > 53.7 | – | – | – | – | – | – | – | – | – | –
O=C(O)C1(Cc2ccc3c(c2)CCC3)Cc2ccccc2C1 | > 100 | > 100 | > 100 | > 100 | > 100 | > 100 | > 100 | > 100 | > 100 | > 100 | – | – | – | – | – | – | – | – | – | –
O=c1oc2ccc(Cl)cc2cc1-c1cn2ccccc2n1 | > 100 | > 100 | > 100 | > 100 | 23.5 | > 77.4 | > 100 | > 44.7 | > 100 | 35.3 | – | – | – | – | – | – | – | – | – | –
CN(C)CCn1c(=O)c2ccc3c4c(nn3CCN(C)C)c3cc([N+](=O)[O-])ccc3n(c1=O)c24 | 1.2 | 0.207 | 0.638 | 0.433 | 1.12 | 0.701 | 2.26 | 0.434 | 10.8 | 2.01 | – | – | – | – | – | – | – | – | – | –
COC(=O)C1=C(C(=O)OC)SC(=C2S[C@@H]3[C@@H]4C[C@H]([C@@H]3S2)[C@H]2C(=O)OC(=O)[C@@H]42)S1 | > 100 | > 100 | > 100 | > 100 | > 100 | > 100 | > 100 | > 100 | > 100 | > 100 | – | – | – | – | – | – | – | – | – | –
N#Cc1c(O)c(N=Nc2ccc(Cl)cc2)c(=O)n2c1[nH]c1ccccc12 | > 100 | > 100 | > 100 | > 100 | > 100 | > 100 | 80.8 | > 100 | > 100 | > 100 | – | – | – | – | – | – | – | – | – | –
C=C(C)C(O)C(O)C[C@@H](C)C1CC[C@]23C[C@]12CCC1[C@@]2(C)CCC(OC(C)=O)C(C)(C)C2CC(OC2OC(CO)C(O)C(O)C2O)[C@]13C (stereo not given in full) | 43.3 | 29.1 | 36.7 | 31.8 | 32.3 | > 100 | 32.3 | 29.3 | 31.6 | 56.2 | – | – | – | – | – | – | – | – | – | –
NC(=O)/C=c1/c2ccccc2n2nc3ccccc3c12 | > 100 | 36.8 | 7.58 | 56.5 | 53.4 | 50.7 | 49.1 | 46.5 | > 100 | > 100 | – | – | – | – | – | – | – | – | – | –
CC1(C)C2CC3C4CC5(Nc6ccccc6C5N41)[C@]3(C)CC2=O (stereo not given in full) | > 50 | > 50 | > 50 | > 50 | > 50 | > 50 | > 50 | > 50 | 33.3 | > 50 | – | – | – | – | – | – | – | – | – | –
O=C(CCCl)NNC1=NCCCCN1 | > 100 | > 100 | > 100 | > 100 | > 100 | > 100 | > 100 | > 100 | > 100 | > 100 | – | – | – | – | – | – | – | – | – | –
COC(=O)c1c[nH]c2c1-c1cc(C(=O)OCc3ccccc3)n(S(=O)(=O)c3ccc(C)cc3)c1C(=O)C2=O | 0.287 | 1.9 | > 100 | 0.89 | 0.222 | 6.01 | 0.155 | 1.14 | 2.47 | 4.1 | – | – | – | – | – | – | – | – | – | –
O=C1N[C@@H]2c3c(Br)sc(Br)c3C(=O)[C@@H]2O1 | 28.2 | 10.8 | 1.96 | 26 | 7.63 | 18 | 3.38 | 4.95 | 27 | 10.5 | – | – | – | – | – | – | – | – | – | –
CN1C=Cc2nccc3cc4c(c1c23)OCO4 | > 25.1 | 30.4 | > 100 | 17.6 | 0.836 | 52.6 | > 72.4 | 7.61 | > 27.1 | 35.4 | – | – | – | – | – | – | – | – | – | –

Compound | TGI (DU-145 prostate) [µM] | TGI (HCC-2998 colon) [µM] | TGI (HL-60(TB) leukemia) [µM] | TGI (KM12 colon) [µM] | TGI (MALME-3M melanoma) [µM] | TGI (NCI/ADR-RES ovarian) [µM] | TGI (OVCAR-3 ovarian) [µM] | TGI (RXF 393 renal) [µM] | TGI (T-47D breast) [µM] | TGI (TK-10 renal) [µM] | GI50 (DU-145 prostate) [nM] | GI50 (HCC-2998 colon) [µM] | GI50 (HL-60(TB) leukemia) [µM] | GI50 (KM12 colon) [µM] | GI50 (MALME-3M melanoma) [nM] | GI50 (NCI/ADR-RES ovarian) [nM] | GI50 (OVCAR-3 ovarian) [nM] | GI50 (RXF 393 renal) [nM] | GI50 (T-47D breast) [µM] | GI50 (TK-10 renal) [nM]
O=C(NC(Nc1ccc(F)cc1)(C(F)(F)F)C(F)(F)F)C(C(F)(F)F)C(F)(F)F | > 100 | > 100 | 15.1 | > 100 | > 100 | > 100 | > 100 | > 100 | > 100 | > 100 | – | – | – | – | – | – | – | – | – | –
O=C(N/N=C/c1ccccc1O)c1ccccc1Nc1ccccc1C(=O)N/N=C/c1ccccc1O | > 100 | > 100 | > 100 | > 100 | 6.09 | 5.44 | > 100 | > 100 | > 100 | > 100 | – | – | – | – | – | – | – | – | – | –
CC1=CC(C)C(C)N(CCNS(=O)(=O)c2ccc(C)cc2)c2ccccc21 (stereo not given) | 24.7 | 30.2 | 22.8 | 37.3 | 23 | 29.5 | 17.1 | 17.7 | 22.3 | > 82.8 | – | – | – | – | – | – | – | – | – | –
CC(C)(C)c1cc(OCc2nnc3sc(=S)[nH]n23)c(Cl)cc1OCc1nnc2sc(=S)[nH]n12 | 94 | 65.2 | 55.5 | 68.7 | 46.9 | > 100 | 63.6 | 69.1 | 57.7 | 99.8 | – | – | – | – | – | – | – | – | – | –
COc1cc(Nc2nnc3n2S(=O)(=O)c2cc(C)c(Cl)cc2S3)cc(OC)c1 | 44.2 | > 100 | 49.7 | > 100 | 23.1 | > 100 | 28.2 | 49.3 | 44.5 | 81.3 | – | – | – | – | – | – | – | – | – | –
O=c1c2cc(Cl)ccc2[nH]c2cc(O)cc(O)c12 | > 10 | > 10 | > 10 | > 10 | > 10 | > 10 | > 10 | > 10 | > 10 | > 10 | – | – | – | – | – | – | – | – | – | –
O=C(Cc1nc2ncccc2[nH]c1=O)c1c[nH]c2ccccc12 | 32.7 | 34.6 | > 100 | 34.5 | 32.7 | > 100 | 32.5 | 39.1 | 34.5 | 30.4 | – | – | – | – | – | – | – | – | – | –
O=C1NC(=O)/C(=C/c2ccc(S(=O)(=O)N/N=C\C(O)C(O)C(O)C(O)CO)cc2)N1 (stereo not given) | > 100 | > 100 | > 100 | > 100 | > 100 | > 100 | > 100 | > 100 | > 100 | > 100 | – | – | – | – | – | – | – | – | – | –
CC(C)CC(NC(=O)C(Cc1ccccc1)NC(=O)C(Cc1c[nH]c2ccccc12)NC(=O)CNC(=O)C(N)Cc1ccc(O)cc1)C(=O)O (stereo not given) (H-YGWFL-OH; configuration not given here) | > 100 | 60.2 | 60.9 | 57.4 | 72.3 | > 100 | 57 | > 100 | 72.9 | > 100 | – | – | – | – | – | – | – | – | – | –
CCN(CC)CCCNc1nc(=O)[nH]c(C)c1C(=O)Nc1ccc2c(c1)c1ccccc1n2CC | > 100 | > 100 | > 100 | > 100 | > 100 | > 100 | > 100 | > 100 | > 100 | > 100 | – | – | – | – | – | – | – | – | – | –
C=CC(Br)(CBr)CCC(Br)C(C)(C)Cl (stereo not given) | 9.92 | 12.8 | 2.6 | 3.92 | 19.2 | 18.6 | 5.25 | 8.86 | 3.95 | 6.33 | – | – | – | – | – | – | – | – | – | –
Oc1cccc2cc(Br)cnc12 | > 100 | 96.9 | 4 | > 100 | > 100 | 20.6 | > 26.3 | 88.2 | > 25.7 | > 100 | – | – | – | – | – | – | – | – | – | –
Cc1ccc(N=NN(C)C(=O)C(C)N)cc1 (stereo not given) | > 100 | > 100 | > 100 | > 100 | > 100 | > 100 | > 100 | > 100 | > 100 | > 100 | – | – | – | – | – | – | – | – | – | –
CCN(CC)/[N+]([O-])=N/OCOC(C)=O | > 100 | > 100 | > 100 | > 100 | > 100 | > 100 | > 100 | > 100 | > 100 | > 100 | – | – | – | – | – | – | – | – | – | –
COc1cc(-c2n/c(=C\c3c(O)[nH]c4cc(Cl)ccc34)cc3c2=Nc2ccccc2-3)cc(OC)c1OC | 7.52 | > 100 | > 100 | > 100 | 9.41 | 20.1 | 6.69 | 7.34 | 18.5 | 5.26 | 2570 | 7.32 | 84.4 | 5.89 | 2980 | 2840 | 2130 | 2370 | 4.19 | 2340
COC(=O)[C@]1(c2cc3ccccc3[nH]2)CC2CN(CC(=O)N(C)OC)C1CC2(OC)OC (stereo not given in full) | > 100 | > 100 | 39.5 | > 100 | > 100 | > 100 | > 100 | > 100 | 57.1 | > 100 | – | – | – | – | – | – | – | – | – | –
